Consider 45 sequences from publication PMC12102759 (Protein Science : A Publication of the Protein Society, 2025).

One assay relates to G3BP1 NFT2. The assay is classed as binding, human. The settings on record: library DMS-CoV; bait G3BP1 NFT2; prey N; peptide APRITFGGPSDSTGSN; listed as aa = residue placed at this position; column sums to 1.
Regarding “APRITFGGPSDSTGSN S10T (APRITFGGPTDSTGSN)”, the “DMS PSSM value, S (position 10)” value is 0.01147. As for APRITFGGPSDSTGSN R3W (APWITFGGPSDSTGSN), the “DMS PSSM value, R (position 3)” value amounted to 0.01451. APRITFGGPSDSTGSN G8N (APRITFGNPSDSTGSN): the “DMS PSSM value, G (position 8)” value is 0. Turning to APRITFGGPSDSTGSN R3P (APPITFGGPSDSTGSN), the “DMS PSSM value, R (position 3)” value is 0.2686. For “APRITFGGPSDSTGSN S12H (APRITFGGPSDHTGSN)”, the “DMS PSSM value, S (position 12)” value is on record as 0.0346.

Take APRITFGGPSDSTGSN G8L (APRITFGLPSDSTGSN): the “DMS PSSM value, G (position 8)” value is reported as 0.0001736. Take APRITFGGPSDSTGSN P9H (APRITFGGHSDSTGSN): the “DMS PSSM value, P (position 9)” value is on record as 0. On to APRITFGGPSDSTGSN T5P (APRIPFGGPSDSTGSN), for which the “DMS PSSM value, T (position 5)” value was 0. In the case of APRITFGGPSDSTGSN I4E (APRETFGGPSDSTGSN), the “DMS PSSM value, I (position 4)” value is reported as 0. In the case of APRITFGGPSDSTGSN T5I (APRIIFGGPSDSTGSN), the “DMS PSSM value, T (position 5)” value is reported as 0.002921.

As to “APRITFGGPSDSTGSN S12K (APRITFGGPSDKTGSN)”, the “DMS PSSM value, S (position 12)” value came to 0. As for APRITFGGPSDSTGSN P9W (APRITFGGWSDSTGSN), the “DMS PSSM value, P (position 9)” value turned out to be 0. As to “APRITFGGPSDSTGSN G14A (APRITFGGPSDSTASN)”, the “DMS PSSM value, G (position 14)” value was 0.007074. With APRITFGGPSDSTGSN I4H (APRHTFGGPSDSTGSN), the “DMS PSSM value, I (position 4)” value stood at 0.

As for “APRITFGGPSDSTGSN S12D (APRITFGGPSDDTGSN)”, the “DMS PSSM value, S (position 12)” value is given as 0. As to APRITFGGPSDSTGSN A1W (WPRITFGGPSDSTGSN), the “DMS PSSM value, A (position 1)” value is listed as 0.0009046. With APRITFGGPSDSTGSN I4Y (APRYTFGGPSDSTGSN), the “DMS PSSM value, I (position 4)” value is given as 0.

For the sequence “APRITFGGPSDSTGSN D11R (APRITFGGPSRSTGSN)”, the “DMS PSSM value, D (position 11)” value is 0. For APRITFGGPSDSTGSN T5M (APRIMFGGPSDSTGSN), the “DMS PSSM value, T (position 5)” value was 0. For the sequence “APRITFGGPSDSTGSN S12M (APRITFGGPSDMTGSN)”, the “DMS PSSM value, S (position 12)” value was found to be 0.01193. For “APRITFGGPSDSTGSN T13L (APRITFGGPSDSLGSN)”, the “DMS PSSM value, T (position 13)” value worked out at 0.003677.

As for “APRITFGGPSDSTGSN S12A (APRITFGGPSDATGSN)”, the “DMS PSSM value, S (position 12)” value is 0.01432.

As to “APRITFGGPSDSTGSN S10D (APRITFGGPDDSTGSN)”, the “DMS PSSM value, S (position 10)” value was 0. Turning to APRITFGGPSDSTGSN R3Q (APQITFGGPSDSTGSN), the “DMS PSSM value, R (position 3)” value was 0.006747. For the sequence APRITFGGPSDSTGSN G7K (APRITFKGPSDSTGSN), the “DMS PSSM value, G (position 7)” value worked out at 0. As for “APRITFGGPSDSTGSN G14D (APRITFGGPSDSTDSN)”, the “DMS PSSM value, G (position 14)” value is 0.0004838. APRITFGGPSDSTGSN G7F (APRITFFGPSDSTGSN): the “DMS PSSM value, G (position 7)” value turned out to be 0.

As for “APRITFGGPSDSTGSN S15L (APRITFGGPSDSTGLN)”, the “DMS PSSM value, S (position 15)” value is on record as 0.01038. With “APRITFGGPSDSTGSN S12I (APRITFGGPSDITGSN)”, the “DMS PSSM value, S (position 12)” value was found to be 0.4295. In the case of “APRITFGGPSDSTGSN D11W (APRITFGGPSWSTGSN)”, the “DMS PSSM value, D (position 11)” value worked out at 0.001161. For the sequence APRITFGGPSDSTGSN G7T (APRITFTGPSDSTGSN), the “DMS PSSM value, G (position 7)” value is recorded as 0. Consider APRITFGGPSDSTGSN R3D (APDITFGGPSDSTGSN), for which the “DMS PSSM value, R (position 3)” value came to 9.037e-5. “APRITFGGPSDSTGSN S15N (APRITFGGPSDSTGNN)”: the “DMS PSSM value, S (position 15)” value is listed as 0.001916.

For APRITFGGPSDSTGSN F6T (APRITTGGPSDSTGSN), the “DMS PSSM value, F (position 6)” value was found to be 0.

In the case of “APRITFGGPSDSTGSN S10R (APRITFGGPRDSTGSN)”, the “DMS PSSM value, S (position 10)” value was 0. With APRITFGGPSDSTGSN T5V (APRIVFGGPSDSTGSN), the “DMS PSSM value, T (position 5)” value was 0. For APRITFGGPSDSTGSN I4S (APRSTFGGPSDSTGSN), the “DMS PSSM value, I (position 4)” value amounted to 0.

In the case of “APRITFGGPSDSTGSN S12L (APRITFGGPSDLTGSN)”, the “DMS PSSM value, S (position 12)” value was 0.001118.

Staying with this assay, now noted: library DMS-CoV; bait G3BP1 NFT2; prey N; peptide RNAPRITFGGPSDSTG; listed as aa = residue placed at this position; column sums to 1.
In the case of “RNAPRITFGGPSDSTG S12L (RNAPRITFGGPLDSTG)”, the “DMS PSSM value, S (position 12)” value is recorded as 0. On the same count and under the same terms, the figure for “RNAPRITFGGPSDSTG S12E (RNAPRITFGGPEDSTG)” is 0.6084. On to RNAPRITFGGPSDSTG R5Y (RNAPYITFGGPSDSTG), for which the “DMS PSSM value, R (position 5)” value came out at 0.03289.

“RNAPRITFGGPSDSTG G16W (RNAPRITFGGPSDSTW)”: the “DMS PSSM value, G (position 16)” value stood at 0.

As to “RNAPRITFGGPSDSTG P11W (RNAPRITFGGWSDSTG)”, the “DMS PSSM value, P (position 11)” value was 0. For the sequence RNAPRITFGGPSDSTG P4W (RNAWRITFGGPSDSTG), the “DMS PSSM value, P (position 4)” value is 0.

For the sequence “RNAPRITFGGPSDSTG S12R (RNAPRITFGGPRDSTG)”, the “DMS PSSM value, S (position 12)” value was found to be 0.
